Results as given in patent US6353025B1, “Phenylaminoalkylcarboxylic acid derivatives and pharmaceutical compositions comprising the same” (Kissei Pharmaceutical Co., Ltd., priority 1997, dated 2002).
Counter-ions that a name gives are not always drawn. Like-named read-outs stand apart in the source and are kept apart here.

Assays:
β1-adrenoceptor = target: T1, β1-adrenoceptor (Rattus norvegicus, UniProt P18090); assay: β1-adrenoceptor stimulating effects: increase of heart rate in isolated rat atria (Magnus method); set-up: species or system SD rats
T1 construct: Atria of male SD rats (250 to 400 g in body weight) were isolated; from tissue; host or cells: isolated rat atria
Description: The experiment for measuring β1-adrenoceptor stimulating effects
Atria of male SD rats (250 to 400 g in body weight) were isolated and the experiment was conducted according to the Magnus method. The preparations with a tension of 0.5 g were exposed to Krebs-Henseleit solution maintained at 37° C. and gassed with a mixture of 95% oxygen and 5% carbon dioxide. The cardiac contractility was measured isometrically with a force-displacement transducer, and heart rate was recorded on a rectigram via a tachometer, and the drug was added cumulatively.

β2-adrenoceptor = target: T2, β2-adrenoceptor (Rattus norvegicus, UniProt P10608); assay: β2-adrenoceptor stimulating effects: inhibition of spontaneous contraction of isolated pregnant rat uterus (Magnus method); conditions: isolated uterine muscle strips of pregnant SD rats (pregnancy day 21)
T2 construct: Uteri of pregnant SD rats (pregnancy day 21) were isolated and longitudinal uterine muscle strips; from tissue; host or cells: longitudinal uterine muscle strips of pregnant SD rats
Description: The experiment for measuring β2-adrenoceptor stimulating effects
Uteri of pregnant SD rats (pregnancy day 21) were isolated and longitudinal uterine muscle strips of approximately 15 mm in length and approximately 5 mm in width free from the basal plate were prepared. The experiment was conducted according to the Magnus method. The preparations with a tension of 0.5 g were exposed to Locke-Ringer solution maintained at 37° C. and gassed with a mixture of 95% oxygen and 5% carbon dioxide. Spontaneous contractions of myometrium were measured isometrically with a force-displacement transducer and recorded on a rectigram. The drug was added cumulatively to the Magnus bath every 5 minutes.

male ICR rats = assay: Acute toxicity test; format: in vivo; conditions: male ICR rats of 4 weeks age, intravenously, 250 mg/kg, during 24 hours after the administration
Description: To male ICR rats of 4 weeks age was administered intravenously N-[2,6-dichloro-4-[2-[[(1S, 2R)-2-hydroxy-2-(4-hydroxyphenyl)-1-methylethyl]amino]ethyl]phenyl]aminoacetic acid at a dose of 250 mg/kg.

β3-adrenoceptor = β3-adrenoceptor (Mustela putorius furo, UniProt M3YEU4); assay: β3-adrenoceptor stimulating effects: relaxation of isolated ferret urinary bladder smooth muscle strips (Magnus method); conditions: read-out: EC50 (molar concentration producing 50% relaxation of urinary bladder smooth muscle); isolated male ferret urinary bladder strips; 0% = maximal relaxation after 10^−5 M forskolin
Description: The experiment for measuring β3-adrenoceptor stimulating effects
Urinary bladders of male ferrets (1100 to 1400 g in body weight) were isolated and urinary bladder smooth muscle strips of approximately 10 mm in length and approximately 2 mm in width were prepared. The experiment was conducted according to the Magnus method. The preparations with a tension of 1 g were exposed to Krebs-Henseleit solution maintained at 37° C. and gassed with a mixture of 95% oxygen and 5% carbon dioxide. Basal tensions of urinary bladder were measured isometrically with a force-displacement transducer and recorded on a rectigram. The drug was added cumulatively to the Magnus bath every 5 minutes. […] In this experiment, tension of urinary bladder smooth muscle before the addition of the drug was expressed as 100% and tension of maximal relaxation after the addition of 10^−5 molar concentration of forskolin was expressed as 0%.

T2 sequence (P10608 whole entry): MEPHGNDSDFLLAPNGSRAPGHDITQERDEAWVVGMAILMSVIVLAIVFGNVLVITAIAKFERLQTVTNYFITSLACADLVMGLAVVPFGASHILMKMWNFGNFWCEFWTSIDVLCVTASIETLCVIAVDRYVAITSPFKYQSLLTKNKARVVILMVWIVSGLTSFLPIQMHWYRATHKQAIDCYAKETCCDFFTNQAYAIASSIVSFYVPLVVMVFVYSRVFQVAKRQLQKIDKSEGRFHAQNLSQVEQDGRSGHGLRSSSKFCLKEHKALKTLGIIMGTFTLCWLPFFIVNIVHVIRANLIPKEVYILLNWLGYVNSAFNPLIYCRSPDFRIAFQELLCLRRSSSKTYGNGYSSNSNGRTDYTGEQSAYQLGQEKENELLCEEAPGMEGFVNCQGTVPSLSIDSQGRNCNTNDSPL
T1 sequence (P18090 whole entry): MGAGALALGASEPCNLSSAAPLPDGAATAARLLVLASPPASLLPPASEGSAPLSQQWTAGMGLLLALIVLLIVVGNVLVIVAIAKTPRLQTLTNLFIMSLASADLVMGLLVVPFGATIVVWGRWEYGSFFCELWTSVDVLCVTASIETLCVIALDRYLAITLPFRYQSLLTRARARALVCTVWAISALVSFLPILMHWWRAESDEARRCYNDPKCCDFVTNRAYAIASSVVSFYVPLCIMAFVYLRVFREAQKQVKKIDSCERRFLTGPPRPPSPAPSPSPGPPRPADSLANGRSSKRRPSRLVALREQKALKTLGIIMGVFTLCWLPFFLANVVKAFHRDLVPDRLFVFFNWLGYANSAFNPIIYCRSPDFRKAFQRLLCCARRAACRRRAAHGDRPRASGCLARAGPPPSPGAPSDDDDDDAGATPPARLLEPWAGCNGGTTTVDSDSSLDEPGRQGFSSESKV
β3-adrenoceptor, sequence (M3YEU4 entry or part of it): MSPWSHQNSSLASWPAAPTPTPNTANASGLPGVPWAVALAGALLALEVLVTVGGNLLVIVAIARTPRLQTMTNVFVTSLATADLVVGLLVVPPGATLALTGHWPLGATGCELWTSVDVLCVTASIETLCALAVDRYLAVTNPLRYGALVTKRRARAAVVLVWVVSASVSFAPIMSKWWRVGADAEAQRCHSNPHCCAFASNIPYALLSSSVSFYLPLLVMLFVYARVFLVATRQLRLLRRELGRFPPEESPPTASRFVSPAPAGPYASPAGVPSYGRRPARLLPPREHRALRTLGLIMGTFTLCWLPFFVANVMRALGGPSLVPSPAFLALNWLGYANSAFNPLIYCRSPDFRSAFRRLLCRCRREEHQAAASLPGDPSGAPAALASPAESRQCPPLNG

| SMILES | EC50 (β1-adrenoceptor) | EC50 (β2-adrenoceptor) | other results |
| --- | --- | --- | --- |
| C[C@H](NCCc1cc(Cl)c(NCC(=O)N2CCOCC2)c(Cl)c1)[C@H](O)c1ccc(O)cc1 [Compound 32, 4-[2-[[2,6-Dichloro-4-[2-[[(1S, 2R)-2-hydroxy-2-(4-hydroxy-phenyl)-1-methylethyl]amino]ethyl]phenyl]amino]acetyl]morpholine] | > 100000 nM | 1700 nM |  |
| C[C@H](NCCc1ccc(NCC(=O)O)c(Cl)c1)[C@H](O)c1ccc(O)cc1 [Compound 20, N-[2-Chloro-4-[2-[[(1S, 2R)-2-hydroxy-2-(4-hydroxyphenyl)-1-methylethyl]amino]ethyl]phenyl]aminoacetic acid] | 23000 nM | 3300 nM |  |
| CCOC(=O)CNc1c(Cl)cc(CCN[C@@H](C)[C@H](O)c2ccc(O)cc2)cc1Cl [Compound 2, Ethyl N-[2,6-dichloro-4-[2-[[(1S, 2R)-2-hydroxy-2-(4-hydroxy-phenyl)-1-methylethyl]amino]ethyl]phenyl]aminoacetate hydrochloride] | 50 nM | 650 nM |  |
| C[C@H](NCCc1ccc(NCC(=O)O)cc1)[C@H](O)c1ccc(O)cc1 [Compound 18, N-[4-[2-[[(1S, 2R)-2-hydroxy-2-(4-hydroxyphenyl)-1-methylethyl]-amino]ethyl]phenyl]aminoacetic acid] | 83 nM | 650 nM |  |
| C[C@H](NCCc1cc(Cl)c(NCC(=O)N(C)C)c(Cl)c1)[C@H](O)c1ccc(O)cc1 [Compound 16, 2-[[2,6-Dichloro-4-[2-[[(1S, 2R)-2-hydroxy-2-(4-hydroxyphenyl)-1-methylethyl]amino]ethyl]phenyl]amino]-N, N-dimethylacetamide hydrochloride] | > 100000 nM |  |  |
| C[C@H](NCCc1cc(Cl)c(NCC(=O)O)c(Cl)c1)[C@H](O)c1ccc(O)cc1 [Compound 17, N-[2,6-Dichloro-4-[2-[[(1S, 2R)-2-hydroxy-2-(4-hydroxyphenyl)-1-methylethyl]amino]ethyl]phenyl]aminoacetic acid] | > 100000 nM | 14000 nM | Death of animals (acute toxicity) (male ICR rats): No death of animals was observed |
| C[C@H](NCCc1cc(Br)c(NCC(=O)O)c(Br)c1)[C@H](O)c1ccc(O)cc1 [Compound 29, N-[2,6-Dibromo-4-[2-[[(1S, 2R)-2-hydroxy-2-(4-hydroxyphenyl)-1-methylethyl]amino]ethyl]phenyl]aminoacetic acid] | > 100000 nM |  |  |
| C[C@H](Cc1ccc(OCC(=O)O)cc1)NC[C@H](O)c1cccc(Cl)c1 [BRL-37344, reference compound] |  |  | EC50 (β3-adrenoceptor): 1.6 nM; EC50 (β1-adrenoceptor; read-out: EC50 (molar concentration producing 50% increase of heart rate per minute), isolated male SD rat atria, 100% = increase after 10^−8 M isoproterenol): 270 nM; EC50 (β2-adrenoceptor; read-out: EC50 (molar concentration producing 50% inhibition of uterine contraction)): 9 nM |
| C[C@H](NCCc1ccc(N(C)CC(=O)O)cc1)[C@H](O)c1ccc(O)cc1 [Compound 21, N-[4-[2-[[(1S, 2R)-2-Hydroxy-2-(4-hydroxyphenyl)-1-methylethyl]-amino]ethyl]phenyl]-N-methylaminoacetic acid] | 34000 nM | 1600 nM |  |
